Test results reported in US12371428B2 (Exelixis, Inc., priority 2019, dated 2025).
Read-outs that look alike come from different tables or passages of the source.

Key:
Format in all cases: cell-based
[1] = molecular target: AXL (phospho-AXL, Gas6-stimulated A-172 glioblastoma cells) (Homo sapiens (Human), UniProt P30530); test: AXL autophosphorylation ELISA in A-172 cells (Example E); details: cellular activity, read-out: Axl IC50
Method in brief: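 Phospho-AXL was measured by ELISA in lysates of Gas6-stimulated A-172 cells, starved 24 h in serum-free medium and exposed 1 h to an 8-point compound dilution at 0.3% DMSO.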

[2] = molecular target: KDR (phospho-KDR, VEGF165-stimulated HUVEC cells) (Homo sapiens (Human), UniProt P35968); test: KDR autophosphorylation ELISA in HUVEC cells (Example G); details: cellular activity
Method in brief: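 Inhibition of VEGF165-driven KDR autophosphorylation is measured in primary human umbilical vein endothelial cells after 24 h serum deprivation. Compound preincubation lasts 1 h before a 5-minute challenge with 100 ng/mL ligand, and phosphorylated receptor is then measured by ELISA in the lysates.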

[3] = molecular target: Mer (phospho-Mer, MERTK-transfected 293A cells) (Homo sapiens (Human), UniProt Q12866); test: Mer autophosphorylation ELISA in transient transfected 293A cells (Example H); details: cellular activity
Method in brief: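 IC50 from 4-parameter logistic fit of phospho-Mer levels, quantified by ELISA against a phospho-Mer standard in lysates of MERTK-transfected 293A cells. Cells exposed 1 h to 8-point serial dilutions, serum-free, 0.3% DMSO; controls: DMSO (100%) and reference inhibitor (0%).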

[4] = molecular target: Met (phospho-Met, HGF-stimulated PC-3 prostate cancer cells) (Homo sapiens (Human), UniProt P08581); test: Met autophosphorylation ELISA in PC-3 cells (Example F); details: cellular activity, read-out: c-Met IC50
Method in brief: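 Sandwich ELISA for phospho-Met (panTyr) in PC-3 lysates. Cells starved 3 h serum-free, compound 1 h (8-pt curve, 0.3% DMSO), HGF 100 ng/mL 10 min. 100% = HGF + DMSO; 0% = HGF + reference inhibitor. IC50 by 4-parameter fit.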

[5] = AXL autophosphorylation ELISA in A-172 cells
[6] = KDR autophosphorylation ELISA in HUVEC cells
[7] = Mer autophosphorylation ELISA in transient transfected 293A cells
[8] = Met autophosphorylation ELISA in PC-3 cells

Sequence of KDR (phospho-KDR, VEGF165-stimulated HUVEC cells) (P35968 20-1356): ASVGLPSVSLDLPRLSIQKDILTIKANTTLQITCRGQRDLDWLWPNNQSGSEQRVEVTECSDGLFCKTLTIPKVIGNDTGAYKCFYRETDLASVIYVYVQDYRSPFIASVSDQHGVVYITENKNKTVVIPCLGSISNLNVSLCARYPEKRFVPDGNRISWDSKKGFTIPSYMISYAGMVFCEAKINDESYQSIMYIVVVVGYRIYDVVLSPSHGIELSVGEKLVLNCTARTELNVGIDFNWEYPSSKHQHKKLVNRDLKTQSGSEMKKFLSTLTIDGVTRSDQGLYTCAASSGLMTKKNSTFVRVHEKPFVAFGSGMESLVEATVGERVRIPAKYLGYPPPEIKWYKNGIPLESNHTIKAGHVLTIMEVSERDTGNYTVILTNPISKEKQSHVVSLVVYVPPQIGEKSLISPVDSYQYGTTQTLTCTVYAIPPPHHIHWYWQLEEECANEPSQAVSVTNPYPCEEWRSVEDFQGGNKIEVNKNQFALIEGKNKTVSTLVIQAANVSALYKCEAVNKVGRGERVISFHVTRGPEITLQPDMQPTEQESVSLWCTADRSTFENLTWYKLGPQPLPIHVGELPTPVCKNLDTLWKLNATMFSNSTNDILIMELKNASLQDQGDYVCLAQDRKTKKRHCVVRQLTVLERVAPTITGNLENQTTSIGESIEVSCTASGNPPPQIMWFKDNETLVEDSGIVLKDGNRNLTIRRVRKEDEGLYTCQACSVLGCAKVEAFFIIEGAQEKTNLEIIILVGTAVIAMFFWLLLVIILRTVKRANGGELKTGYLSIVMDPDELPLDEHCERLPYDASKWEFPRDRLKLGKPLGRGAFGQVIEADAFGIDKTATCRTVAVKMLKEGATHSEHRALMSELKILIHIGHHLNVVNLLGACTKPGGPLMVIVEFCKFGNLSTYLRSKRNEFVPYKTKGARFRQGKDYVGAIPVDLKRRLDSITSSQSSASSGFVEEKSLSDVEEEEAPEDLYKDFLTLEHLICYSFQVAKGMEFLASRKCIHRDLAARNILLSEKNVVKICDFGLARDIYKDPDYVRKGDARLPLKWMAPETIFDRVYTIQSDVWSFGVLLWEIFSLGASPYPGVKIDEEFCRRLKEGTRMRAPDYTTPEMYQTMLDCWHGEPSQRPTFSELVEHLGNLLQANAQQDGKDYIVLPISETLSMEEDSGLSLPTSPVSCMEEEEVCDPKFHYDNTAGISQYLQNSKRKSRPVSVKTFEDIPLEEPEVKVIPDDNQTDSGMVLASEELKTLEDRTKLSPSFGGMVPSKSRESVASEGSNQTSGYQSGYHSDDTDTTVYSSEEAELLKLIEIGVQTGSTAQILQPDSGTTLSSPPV
Sequence of AXL (phospho-AXL, Gas6-stimulated A-172 glioblastoma cells) (P30530 26-894): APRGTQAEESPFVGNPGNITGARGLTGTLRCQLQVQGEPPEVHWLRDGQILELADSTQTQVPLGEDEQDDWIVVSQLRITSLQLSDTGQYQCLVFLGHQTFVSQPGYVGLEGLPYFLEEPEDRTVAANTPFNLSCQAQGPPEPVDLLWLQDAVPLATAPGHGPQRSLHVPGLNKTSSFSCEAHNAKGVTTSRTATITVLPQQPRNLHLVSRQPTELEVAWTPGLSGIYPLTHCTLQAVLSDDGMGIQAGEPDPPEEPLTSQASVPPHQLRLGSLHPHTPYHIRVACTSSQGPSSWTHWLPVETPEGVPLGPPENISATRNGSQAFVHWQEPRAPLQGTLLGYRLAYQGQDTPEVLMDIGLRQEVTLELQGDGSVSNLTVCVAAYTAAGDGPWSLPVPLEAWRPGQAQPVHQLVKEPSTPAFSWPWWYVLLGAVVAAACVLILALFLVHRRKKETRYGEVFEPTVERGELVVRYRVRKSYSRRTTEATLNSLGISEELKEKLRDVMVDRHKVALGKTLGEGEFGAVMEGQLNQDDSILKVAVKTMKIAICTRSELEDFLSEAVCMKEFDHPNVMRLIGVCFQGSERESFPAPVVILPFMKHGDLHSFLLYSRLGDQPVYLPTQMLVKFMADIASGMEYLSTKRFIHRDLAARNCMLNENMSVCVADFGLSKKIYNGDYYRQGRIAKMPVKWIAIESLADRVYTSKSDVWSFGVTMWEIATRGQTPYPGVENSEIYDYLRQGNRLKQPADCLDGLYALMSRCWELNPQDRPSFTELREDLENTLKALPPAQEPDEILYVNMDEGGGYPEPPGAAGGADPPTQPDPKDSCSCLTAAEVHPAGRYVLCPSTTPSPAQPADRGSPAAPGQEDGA
Sequence of Met (phospho-Met, HGF-stimulated PC-3 prostate cancer cells) (P08581 25-1390): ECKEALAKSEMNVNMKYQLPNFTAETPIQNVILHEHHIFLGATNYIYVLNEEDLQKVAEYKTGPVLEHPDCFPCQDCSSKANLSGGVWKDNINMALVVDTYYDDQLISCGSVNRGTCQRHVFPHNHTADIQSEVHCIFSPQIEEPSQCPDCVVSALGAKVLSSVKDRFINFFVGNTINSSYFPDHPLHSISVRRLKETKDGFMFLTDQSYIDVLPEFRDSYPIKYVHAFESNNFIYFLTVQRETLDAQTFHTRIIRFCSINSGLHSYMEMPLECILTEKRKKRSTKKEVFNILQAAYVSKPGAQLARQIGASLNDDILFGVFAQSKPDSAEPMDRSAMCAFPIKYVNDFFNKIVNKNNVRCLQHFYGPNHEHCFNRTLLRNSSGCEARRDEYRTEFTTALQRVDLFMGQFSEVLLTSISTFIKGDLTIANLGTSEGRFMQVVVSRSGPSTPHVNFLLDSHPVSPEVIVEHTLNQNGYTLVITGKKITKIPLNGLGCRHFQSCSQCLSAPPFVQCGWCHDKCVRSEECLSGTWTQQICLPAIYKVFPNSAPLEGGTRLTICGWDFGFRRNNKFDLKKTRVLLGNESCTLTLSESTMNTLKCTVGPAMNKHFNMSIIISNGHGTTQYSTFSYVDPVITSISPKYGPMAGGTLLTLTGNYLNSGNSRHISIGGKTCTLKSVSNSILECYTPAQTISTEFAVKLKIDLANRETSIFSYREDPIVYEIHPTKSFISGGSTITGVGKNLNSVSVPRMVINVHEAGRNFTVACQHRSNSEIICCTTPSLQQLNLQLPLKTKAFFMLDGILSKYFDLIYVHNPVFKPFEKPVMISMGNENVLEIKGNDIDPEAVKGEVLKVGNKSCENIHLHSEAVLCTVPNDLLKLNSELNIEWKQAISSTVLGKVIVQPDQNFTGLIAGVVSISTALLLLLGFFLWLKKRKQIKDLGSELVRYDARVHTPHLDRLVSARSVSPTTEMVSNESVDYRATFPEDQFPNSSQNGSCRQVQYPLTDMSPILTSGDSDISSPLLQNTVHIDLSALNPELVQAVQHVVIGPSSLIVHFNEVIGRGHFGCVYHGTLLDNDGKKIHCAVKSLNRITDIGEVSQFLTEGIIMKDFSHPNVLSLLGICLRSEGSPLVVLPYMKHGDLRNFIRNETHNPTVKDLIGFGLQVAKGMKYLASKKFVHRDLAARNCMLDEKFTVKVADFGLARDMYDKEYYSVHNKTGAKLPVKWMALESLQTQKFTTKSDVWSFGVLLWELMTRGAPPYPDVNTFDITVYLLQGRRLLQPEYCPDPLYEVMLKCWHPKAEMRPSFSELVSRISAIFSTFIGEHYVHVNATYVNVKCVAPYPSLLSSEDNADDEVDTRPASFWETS
Sequence of Mer (phospho-Mer, MERTK-transfected 293A cells) (Q12866 21-999): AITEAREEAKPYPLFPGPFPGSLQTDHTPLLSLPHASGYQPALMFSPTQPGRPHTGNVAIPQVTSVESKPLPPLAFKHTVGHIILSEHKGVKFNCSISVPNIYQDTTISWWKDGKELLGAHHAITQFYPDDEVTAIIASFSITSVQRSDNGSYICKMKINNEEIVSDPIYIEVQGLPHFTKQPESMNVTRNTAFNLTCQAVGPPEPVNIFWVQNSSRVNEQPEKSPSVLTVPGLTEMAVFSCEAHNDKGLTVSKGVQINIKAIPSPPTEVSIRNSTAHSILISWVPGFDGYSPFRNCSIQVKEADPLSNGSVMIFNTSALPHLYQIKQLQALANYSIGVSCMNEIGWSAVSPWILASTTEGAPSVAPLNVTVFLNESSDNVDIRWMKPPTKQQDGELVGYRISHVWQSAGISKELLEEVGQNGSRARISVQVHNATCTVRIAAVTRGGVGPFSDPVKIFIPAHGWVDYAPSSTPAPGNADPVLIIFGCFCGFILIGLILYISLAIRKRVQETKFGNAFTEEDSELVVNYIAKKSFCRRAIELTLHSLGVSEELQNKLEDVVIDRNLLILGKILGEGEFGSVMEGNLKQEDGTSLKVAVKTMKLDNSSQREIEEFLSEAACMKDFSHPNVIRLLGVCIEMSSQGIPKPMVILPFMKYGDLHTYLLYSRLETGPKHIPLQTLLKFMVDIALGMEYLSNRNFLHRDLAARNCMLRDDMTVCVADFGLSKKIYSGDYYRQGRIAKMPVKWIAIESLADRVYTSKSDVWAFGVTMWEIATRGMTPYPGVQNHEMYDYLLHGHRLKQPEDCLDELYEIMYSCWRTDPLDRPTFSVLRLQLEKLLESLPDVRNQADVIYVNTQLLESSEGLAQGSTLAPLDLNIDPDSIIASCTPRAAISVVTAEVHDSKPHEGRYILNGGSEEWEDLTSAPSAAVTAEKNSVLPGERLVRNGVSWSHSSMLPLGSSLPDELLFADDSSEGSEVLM

In the case of `COc1cnc2c(Oc3ccc(NC(=O)c4c5n(c(C)c(-c6ccc(F)cc6)c4=O)CCOC5)cc3F)ccnc2c1` [Compound 783, N-[3-fluoro-4-[(7-methoxy-1,5-naphthyridin-4-yl)oxy]phenyl]-7-(4-fluorophenyl)-6-methyl-8-oxo-3,4-dihydro-1H-pyrido[2,1-c][1,4]oxazine-9-carboxamide], the IC50 [1, 5] is reported as under 100 nM, the IC50 [2, 6] is reported as over 300 nM and the IC50 [3, 7] is reported as under 100 nM. For the same compound, the IC50 [4, 8] was under 100 nM.
`COc1cnc2c(Oc3ccc(NC(=O)c4c5n(c(C)c(-c6ccc(F)cc6C)c4=O)CCOC5)cc3F)ccnc2c1` [Compound 784, N-[3-fluoro-4-[(7-methoxy-1,5-naphthyridin-4-yl)oxy]phenyl]-7-(4-fluoro-2-methylphenyl)-6-methyl-8-oxo-3,4-dihydro-1H-pyrido[2,1-c][1,4]oxazine-9-carboxamide] gave an IC50 [1, 5] of under 100 nM, an IC50 [2, 6] of over 300 nM and an IC50 [3, 7] of under 100 nM. The IC50 [4, 8] was under 100 nM.
In the case of `COCCc1nc(C)c(-c2ccc(F)cc2)c(O)c1C(=O)Nc1ccc(Oc2ccnc3cc(OC)c(OC)nc23)c(F)c1` [Compound 785, N-[4-[(6,7-dimethoxy-1,5-naphthyridin-4-yl)oxy]-3-fluorophenyl]-5-(4-fluorophenyl)-4-hydroxy-2-(2-methoxyethyl)-6-methylpyridine-3-carboxamide], the IC50 [1, 5] is reported as under 100 nM, the IC50 [2, 6] is reported as under 100 nM and the IC50 [3, 7] is reported as under 100 nM. The IC50 [4, 8] was under 100 nM.
In the case of `COc1cc(F)ccc1-c1cnc(C)c(C(=O)Nc2ccc(Oc3ccnc4cc(OC)c(OC)nc34)c(F)c2)c1O` [Compound 792, N-[4-[(6,7-dimethoxy-1,5-naphthyridin-4-yl)oxy]-3-fluorophenyl]-5-(4-fluoro-2-methoxyphenyl)-4-hydroxy-2-methylpyridine-3-carboxamide], the IC50 [1, 5] is reported as under 100 nM, the IC50 [2, 6] is reported as under 100 nM and the IC50 [3, 7] is reported as under 100 nM. The IC50 [4, 8] was under 100 nM.
`COc1cnc2c(Oc3ccc(NC(=O)c4c(C)ncc(-c5ccc(F)cc5OC)c4O)cc3F)ccnc2c1` [Compound 793, N-[3-fluoro-4-[(7-methoxy-1,5-naphthyridin-4-yl)oxy]phenyl]-5-(4-fluoro-2-methoxyphenyl)-4-hydroxy-2-methylpyridine-3-carboxamide] was tested, and the IC50 [1, 5] was under 100 nM, the IC50 [2, 6] was under 100 nM and the IC50 [3, 7] was under 100 nM. It also gave an IC50 [4, 8] of under 100 nM.
Compound `COc1cc2nccc(Oc3ccc(NC(=O)c4c(C)ncc(-c5ccc(F)c(C)c5)c4O)cc3F)c2nc1OC` [Compound 794, N-[4-[(6,7-dimethoxy-1,5-naphthyridin-4-yl)oxy]-3-fluorophenyl]-5-(4-fluoro-3-methylphenyl)-4-hydroxy-2-methylpyridine-3-carboxamide] has an IC50 [1, 5] of under 100 nM, an IC50 [2, 6] of under 100 nM and an IC50 [3, 7] of under 100 nM. The IC50 [4, 8] was under 100 nM.
With `COc1cnc2c(Oc3ccc(NC(=O)c4c(C)ncc(-c5ccc(F)c(C)c5)c4O)cc3F)ccnc2c1` [Compound 795, N-[3-fluoro-4-[(7-methoxy-1,5-naphthyridin-4-yl)oxy]phenyl]-5-(4-fluoro-3-methylphenyl)-4-hydroxy-2-methylpyridine-3-carboxamide] the IC50 [1, 5] was under 100 nM, the IC50 [2, 6] was under 100 nM and the IC50 [3, 7] was under 100 nM. The IC50 [4, 8] was under 100 nM.
`COc1cc2nccc(Oc3ccc(NC(=O)c4c(C)ncc(-c5ccc(F)c(F)c5)c4O)cc3F)c2nc1OC` [Compound 796, 5-(3,4-difluorophenyl)-N-[4-[(6,7-dimethoxy-1,5-naphthyridin-4-yl)oxy]-3-fluorophenyl]-4-hydroxy-2-methylpyridine-3-carboxamide] was tested, and the IC50 [1, 5] was under 100 nM, the IC50 [2, 6] was under 100 nM and the IC50 [3, 7] was under 100 nM. It also gave an IC50 [4, 8] of under 100 nM.
Work on `COc1cnc2c(Oc3ccc(NC(=O)c4c(C)ncc(-c5ccc(F)c(F)c5)c4O)cc3F)ccnc2c1` [Compound 797, 5-(3,4-difluorophenyl)-N-[3-fluoro-4-[(7-methoxy-1,5-naphthyridin-4-yl)oxy]phenyl]-4-hydroxy-2-methylpyridine-3-carboxamide] yielded an IC50 [1, 5] of under 100 nM, an IC50 [2, 6] of under 100 nM and an IC50 [3, 7] of under 100 nM. It also gave an IC50 [4, 8] of under 100 nM.
`COc1cc2nccc(Oc3ccc(NC(=O)c4c5n(cc(-c6ccc(F)cc6)c4=O)CCOC5)cc3F)c2nc1OC` [Compound 808, N-[4-[(6,7-dimethoxy-1,5-naphthyridin-4-yl)oxy]-3-fluorophenyl]-7-(4-fluorophenyl)-8-oxo-3,4-dihydro-1H-pyrido[2,1-c][1,4]oxazine-9-carboxamide] was tested, and the IC50 ([1]; A-172 cells) was under 100 nM, the IC50 ([2]; HUVEC cells) was over 300 nM and the IC50 ([3]; transfected 293A cells) was under 100 nM. It also gave an IC50 ([4]; PC-3 cells) of under 100 nM.
Work on `COc1cnc2c(Oc3ccc(NC(=O)c4c5n(cc(-c6ccc(F)cc6)c4=O)CCOC5)cc3F)ccnc2c1` [Compound 809, N-[3-fluoro-4-[(7-methoxy-1,5-naphthyridin-4-yl)oxy]phenyl]-7-(4-fluorophenyl)-8-oxo-3,4-dihydro-1H-pyrido[2,1-c][1,4]oxazine-9-carboxamide] yielded an IC50 ([1]; A-172 cells) of under 100 nM, an IC50 ([2]; HUVEC cells) of over 300 nM and an IC50 ([3]; transfected 293A cells) of under 100 nM. It also gave an IC50 ([4]; PC-3 cells) of under 100 nM.
`COc1cc(F)ccc1-c1cn(CC(F)F)c(C)c(C(=O)Nc2ccc(Oc3ccnc4cc(OC)c(OC)nc34)c(F)c2)c1=O` [Compound 810, 1-(2,2-difluoroethyl)-N-[4-[(6,7-dimethoxy-1,5-naphthyridin-4-yl)oxy]-3-fluorophenyl]-5-(4-fluoro-2-methoxyphenyl)-2-methyl-4-oxopyridine-3-carboxamide] gave an IC50 ([1]; A-172 cells) of under 100 nM, an IC50 ([2]; HUVEC cells) of under 100 nM and an IC50 ([3]; transfected 293A cells) of under 100 nM. The IC50 ([4]; PC-3 cells) was under 100 nM.
Compound `COc1cnc2c(Oc3ccc(NC(=O)c4c(C)n(CC(F)F)cc(-c5ccc(F)cc5OC)c4=O)cc3F)ccnc2c1` [Compound 811, 1-(2,2-difluoroethyl)-N-[3-fluoro-4-[(7-methoxy-1,5-naphthyridin-4-yl)oxy]phenyl]-5-(4-fluoro-2-methoxyphenyl)-2-methyl-4-oxopyridine-3-carboxamide] has an IC50 ([1]; A-172 cells) of under 100 nM, an IC50 ([2]; HUVEC cells) of under 100 nM and an IC50 ([3]; transfected 293A cells) of under 100 nM. It also gave an IC50 ([4]; PC-3 cells) of under 100 nM.
With `COc1cc2nccc(Oc3ccc(NC(=O)c4c(C)n(CC(F)F)cc(-c5ccc(F)c(C)c5)c4=O)cc3F)c2nc1OC` [Compound 812, 1-(2,2-difluoroethyl)-N-[4-[(6,7-dimethoxy-1,5-naphthyridin-4-yl)oxy]-3-fluorophenyl]-5-(4-fluoro-3-methylphenyl)-2-methyl-4-oxopyridine-3-carboxamide] the IC50 ([1]; A-172 cells) was under 100 nM, the IC50 ([2]; HUVEC cells) was over 300 nM and the IC50 ([3]; transfected 293A cells) was under 100 nM. It also gave an IC50 ([4]; PC-3 cells) of under 100 nM.
`COc1cnc2c(Oc3ccc(NC(=O)c4c(C)n(CCF)cc(-c5ccc(F)c(C)c5)c4=O)cc3F)ccnc2c1` [Compound 813, 1-(2-fluoroethyl)-N-[3-fluoro-4-[(7-methoxy-1,5-naphthyridin-4-yl)oxy]phenyl]-5-(4-fluoro-3-methylphenyl)-2-methyl-4-oxopyridine-3-carboxamide] was tested, and the IC50 ([1]; A-172 cells) was under 100 nM, the IC50 ([2]; HUVEC cells) was 100 to 300 nM and the IC50 ([3]; transfected 293A cells) was under 100 nM. For the same compound, the IC50 ([4]; PC-3 cells) was under 100 nM.
`COc1cnc2c(Oc3ccc(NC(=O)c4c(C)n(CC(F)F)cc(-c5ccc(F)c(C)c5)c4=O)cc3F)ccnc2c1` [Compound 814, 1-(2,2-difluoroethyl)-N-[3-fluoro-4-[(7-methoxy-1,5-naphthyridin-4-yl)oxy]phenyl]-5-(4-fluoro-3-methylphenyl)-2-methyl-4-oxopyridine-3-carboxamide] was tested, and the IC50 ([1]; A-172 cells) was under 100 nM, the IC50 ([2]; HUVEC cells) was over 300 nM and the IC50 ([3]; transfected 293A cells) was under 100 nM. It also gave an IC50 ([4]; PC-3 cells) of under 100 nM.
`COc1cc2nccc(Oc3ccc(NC(=O)c4c(C)n(CCF)cc(-c5ccc(F)c(F)c5)c4=O)cc3F)c2nc1OC` [Compound 815, 5-(3,4-difluorophenyl)-N-[4-[(6,7-dimethoxy-1,5-naphthyridin-4-yl)oxy]-3-fluorophenyl]-1-(2-fluoroethyl)-2-methyl-4-oxopyridine-3-carboxamide] showed an IC50 ([1]; A-172 cells) of under 100 nM, an IC50 ([2]; HUVEC cells) of 100 to 300 nM and an IC50 ([3]; transfected 293A cells) of under 100 nM. The IC50 ([4]; PC-3 cells) was under 100 nM.
`COc1cc2nccc(Oc3ccc(NC(=O)c4c(C)n(CC(F)F)cc(-c5ccc(F)c(F)c5)c4=O)cc3F)c2nc1OC` [Compound 816, 1-(2,2-difluoroethyl)-5-(3,4-difluorophenyl)-N-[4-[(6,7-dimethoxy-1,5-naphthyridin-4-yl)oxy]-3-fluorophenyl]-2-methyl-4-oxopyridine-3-carboxamide] was tested, and the IC50 ([1]; A-172 cells) was under 100 nM, the IC50 ([2]; HUVEC cells) was over 300 nM and the IC50 ([3]; transfected 293A cells) was under 100 nM. The IC50 ([4]; PC-3 cells) was under 100 nM.
With `COc1cc2nccc(Oc3ccc(NC(=O)c4c(C)n(C)c(C)c(-c5ccc(F)c(C)c5)c4=O)cc3F)c2nc1OC` [Compound 821, N-[4-[(6,7-dimethoxy-1,5-naphthyridin-4-yl)oxy]-3-fluorophenyl]-5-(4-fluoro-3-methylphenyl)-1,2,6-trimethyl-4-oxopyridine-3-carboxamide] the IC50 ([1]; A-172 cells) was under 100 nM, the IC50 ([2]; HUVEC cells) was 100 to 300 nM and the IC50 ([3]; transfected 293A cells) was under 100 nM. For the same compound, the IC50 ([4]; PC-3 cells) was under 100 nM.
